Test results as given in US20220024882A1, “NOVEL TUMOR ANTIGEN BINDING AGENTS AND USES THEREOF” (ITM Isotopen Technologien München AG, priority 2018, published 2022).

Tests used:
[1] = Plasma protein binding, ultrafiltration assay; format: in vitro ADME; conditions: incubated in human plasma at 37° C., read-out: fraction of radioligand retained in the filter membrane (serum protein binding) (converted)
Procedure: In short, the PSMA-ligands were labeled with ^177Lu at a specific activity of 50 MBq/nmol and incubated in human plasma samples or PBS at room temperature. The free and plasma-bound fractions were separated using a centrifree ultrafiltration device (4104 centrifugal filter units; Millipore, 30000 Da nominal molecular weight limit, methylcellulose micropartition membranes). The incubated solution was loaded to the ultrafiltration device and centrifuged at 2500 rpm for 40 min at 20° C. Samples from the filtrate were taken and analyzed for radioactivity in a γ-counter. The amount of plasma-bound radioligand was calculated as the fraction of radioactivity measured in the […] relative to the corresponding loading solution (set to 100%). The experiments were performed at least 3 times for each radioligand.
Plasma protein-binding properties of ^177Lu-Ibu-sPSMA were determined using an ultrafiltration assay according to Benesova, M. et al. (Mol Pharm 2018, 15, (3), 934-946). In short, the Ibu-sPSMA-ligand was labeled with ^177Lu at a molar activity of 50 MBq/nmol and incubated in human plasma samples or PBS at 37° C. […] Samples from the filtrate were taken and analyzed for radioactivity in a γ-counter. The amount of plasma-bound radioligand was calculated as the fraction of radioactivity measured in the […] relative to the corresponding loading solution (set to 100%). […]

PSMA = molecular target: T1, PSMA (Homo sapiens, UniProt Q04609); experiment: Determination of KD values (PSMA-binding affinity); conditions: PSMA-binding affinity of the 177Lu radioligand
T1 construct: expressed in transfected cells; host or cells: PC-3 PIP (PSMA-transfected PC-3 human prostate cancer cells), from Prof; Martin Pomper
T1 sequence (Q04609 whole entry): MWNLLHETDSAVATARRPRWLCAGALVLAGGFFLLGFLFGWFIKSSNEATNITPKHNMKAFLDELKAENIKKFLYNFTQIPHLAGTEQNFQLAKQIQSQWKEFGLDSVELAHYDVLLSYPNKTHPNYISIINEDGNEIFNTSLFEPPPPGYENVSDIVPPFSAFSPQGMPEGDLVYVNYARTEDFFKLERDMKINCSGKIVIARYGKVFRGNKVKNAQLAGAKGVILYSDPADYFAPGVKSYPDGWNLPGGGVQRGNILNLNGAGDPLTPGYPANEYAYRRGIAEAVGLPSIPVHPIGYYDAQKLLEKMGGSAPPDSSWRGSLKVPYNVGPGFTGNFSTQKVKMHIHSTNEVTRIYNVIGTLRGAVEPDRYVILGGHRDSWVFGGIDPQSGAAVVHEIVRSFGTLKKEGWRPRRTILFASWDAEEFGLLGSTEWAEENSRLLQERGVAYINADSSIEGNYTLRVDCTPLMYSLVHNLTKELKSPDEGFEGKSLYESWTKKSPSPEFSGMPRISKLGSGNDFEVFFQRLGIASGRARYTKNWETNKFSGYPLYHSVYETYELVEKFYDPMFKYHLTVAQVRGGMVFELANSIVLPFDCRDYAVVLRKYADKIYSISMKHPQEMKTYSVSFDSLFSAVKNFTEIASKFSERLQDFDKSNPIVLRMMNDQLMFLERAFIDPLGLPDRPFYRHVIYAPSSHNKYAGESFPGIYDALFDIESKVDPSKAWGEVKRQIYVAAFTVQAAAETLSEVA
Procedure: The KD values, indicating the PSMA-binding affinity of the novel radioligand, were determined.

For CC(C)Cc1ccc(C(C)C(=O)NCC[C@H](NC(=O)CN2CCN(CC(=O)O)CCN(CC(=O)O)CCN(CC(=O)O)CC2)C(=O)NCC2CCC(C(=O)N[C@@H](Cc3ccc4ccccc4c3)C(=O)NCCCC[C@H](NC(=O)N[C@@H](CCC(=O)O)C(=O)O)C(=O)O)CC2)cc1 (some centres unmarked) [^177Lu-Ibu-sPSMA, metal not drawn], the fraction unbound [1] was roughly 0.03 and the Kd (PSMA) was 0.04 ± 0.005 µM.
